This note sets out measurements from US20240218022A1, “ANTI-VISTA MACROCYCLIC PEPTIDES AND COMPOSITIONS” (BRISTOL-MYERS SQUIBB COMPANY, priority 2022, published 2024).

Read-outs that look alike come from different tables or passages of the source. Starred links: 1 amine or outer side, 2 acyl side, 3 side chain; linkers in the order of their positions; H or OH if unused. Positions of bridges follow the written chain, without caps; N, C: chain ends. Non-standard residues stand in square brackets, D forms with d. Residues, ends and D or L forms follow the SMILES beside them. Trp(1-Me) = Cn1cc(C[C@H](N)C(=O)O)c2ccccc21; Tyr(3-Cl) = N[C@@H](Cc1ccc(O)c(Cl)c1)C(=O)O; Phe(3-Me) = Cc1cccc(C[C@H](N)C(=O)O)c1; γGlu = O=C(O)[C@H](CCC(=O)[*:2])N[*:1]; 2Nal = N[C@@H](Cc1ccc2ccccc2c1)C(=O)O; βAsp = O=C(O)[C@H](CC(=O)[*:2])N[*:1]; Ahp(2) = CCCCC[C@H](N)C(=O)O; NMeNle = CCCC[C@H](NC)C(=O)O; Tle = CC(C)(C)[C@H](N)C(=O)O; NHexGly = CCCCCCNCC(=O)O; Nle = CCCC[C@H](N)C(=O)O; Orn = NCCC[C@H](N)C(=O)O; Aun = NCCCCCCCCCCC(=O)O; Dap = NC[C@H](N)C(=O)O; AEEA = NCCOCCOCC(=O)O

The target in the experiment is T1, mouse VISTA (mVISTA) (Mus musculus, UniProt Q9D659).
T1 construct: expressed in transfected cells; host or cells: Human embryonic kidney 293T cells
T1 sequence (Q9D659 33-308): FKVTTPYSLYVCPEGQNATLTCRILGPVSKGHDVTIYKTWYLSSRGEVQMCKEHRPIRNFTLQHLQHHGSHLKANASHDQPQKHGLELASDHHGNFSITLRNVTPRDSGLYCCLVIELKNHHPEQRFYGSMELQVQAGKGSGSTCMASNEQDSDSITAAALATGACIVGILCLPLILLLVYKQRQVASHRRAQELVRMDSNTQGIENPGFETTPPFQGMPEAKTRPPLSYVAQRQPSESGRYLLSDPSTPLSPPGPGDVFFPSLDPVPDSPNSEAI
Put plainly: Cell-Based Binding High-Content Assay For mVISTA (HC CBA mVISTA). The gist of the method: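 This high-content binding assay uses HEK293T cells expressing murine VISTA, measuring displacement of 2 nM biotinylated peptide by fluorescent streptavidin imaging. IC50 values come from four-parameter logistic fitting.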

The mark [1] stands for this setting: cell-based binding high-content assay, mVISTA, the 16th table, read-out: HC CBA mVISTA IC50.
[2] abbreviates: cell-based binding high-content assay, read-out: HC CBA mVISTA IC50.
Where [3] appears, read: 293T cells expressing mouse VISTA, competition with biotinylated peptide (2 nM), read-out: HC CBA mVISTA IC50.

Usually IC50 stands for the concentration at which inhibition is half-maximal. Regarding `CCCCCCN1CC(=O)N[C@@H](Cc2ccc(O)cc2)C(=O)N[C@@H](CCCC)C(=O)NCC(=O)N[C@@H](CCCNC(=N)N)C(=O)N[C@@H](CC(C)C)C(=O)N[C@@H](CCCCC)C(=O)N2CCC[C@H]2C(=O)N[C@@H](C(C)C)C(=O)N[C@@H](CCC(=O)O)C(=O)N[C@H](C(=O)NCC(N)=O)CSCC(=O)N[C@@H](Cc2ccc3ccccc3c2)C(=O)N[C@@H](Cc2ccc(O)cc2)C(=O)N[C@@H](CC(=O)O)C1=O` [Ex 1287] ({CH2CO}-[2Nal]YD[NHexGly]Y[Nle]GRL[Ahp(2)]PVECG-NH2; thioether N-14), the concentration for half-maximal inhibition (IC50) under setting [1] was found to be 42.7 nM.
In the case of `CCCCCCN1CC(=O)N[C@@H](Cc2ccc(O)cc2)C(=O)N[C@@H](CCCC)C(=O)N[C@@H](CC(N)=O)C(=O)N[C@@H](CCCNC(=N)N)C(=O)N[C@@H](CC(C)C)C(=O)N[C@@H](CCCCC)C(=O)N2CCC[C@H]2C(=O)N[C@@H](C(C)C)C(=O)N[C@@H](CC(=O)O)C(=O)N[C@H](C(=O)NCC(=O)O)CSCC(=O)N[C@@H](Cc2ccc3ccccc3c2)C(=O)N[C@@H](Cc2cn(C)c3ccccc23)C(=O)N[C@@H](CC(=O)O)C1=O` [compound 1454] ({CH2CO}-[2Nal][Trp(1-Me)]D[NHexGly]Y[Nle]NRL[Ahp(2)]PVDCG-OH; thioether N-14), for the setting “the 20th table, scaffold drawing 23, read-out: HC CBA mVISTA IC50”, the half-inhibitory concentration (IC50) came to 3.6 nM.
With `CCCCCCN1CC(=O)N[C@@H](Cc2ccc(O)cc2)C(=O)N[C@@H](C(C)C)C(=O)NCC(=O)N[C@@H](CCCNC(=N)N)C(=O)N[C@@H](CC(C)C)C(=O)N[C@@H](CCCCC)C(=O)N2CCC[C@H]2C(=O)N[C@@H](C(C)C)C(=O)N[C@@H](CC(=O)O)C(=O)N[C@H](C(=O)NCC(=O)O)CSCC(=O)N[C@@H](Cc2ccc3ccccc3c2)C(=O)N[C@@H](Cc2ccc(O)cc2)C(=O)N[C@@H](CC(=O)O)C1=O` [Ex 1280] ({CH2CO}-[2Nal]YD[NHexGly]YVGRL[Ahp(2)]PVDCG-OH; thioether N-14), under setting [1], the IC50 amounted to 33.7 nM.
As to `CCCCCCN1CC(=O)N[C@@H](Cc2ccc(O)cc2)C(=O)N[C@@H](CCCC)C(=O)N[C@@H](CC(N)=O)C(=O)N[C@@H](CCCNC(=N)N)C(=O)N(C)[C@@H](CCCC)C(=O)N[C@@H](CCCCC)C(=O)N2CCC[C@H]2C(=O)N[C@@H](C(C)(C)C)C(=O)N[C@@H](CO)C(=O)N[C@H](C(=O)NCC(=O)NCCOCCOCC(=O)N[C@@H](CCC(=O)NCCOCCOCC(=O)NCCCCCCCCCCC(=O)O)C(=O)O)CSCC(=O)N[C@@H](Cc2ccc3ccccc3c2)C(=O)N[C@@H](Cc2ccc(O)cc2)C(=O)N[C@@H](CC(=O)O)C1=O` [compound 2333] ({CH2CO}-[2Nal]YD[NHexGly]Y[Nle]NR[NMeNle][Ahp(2)]P[Tle]SCG[AEEA][γGlu][AEEA][Aun]-OH; thioether N-14), the IC50 under setting [2] came to 46.8 nM.
As to `CCCCCCN1CC(=O)N[C@@H](Cc2ccc(O)cc2)C(=O)N[C@@H](CCCC)C(=O)N[C@@H](CC(N)=O)C(=O)N[C@@H](CCCNC(=N)N)C(=O)N[C@@H](CC(C)C)C(=O)N[C@@H](CCCCC)C(=O)N2CCC[C@H]2C(=O)N[C@@H](C(C)C)C(=O)N[C@@H](CC(=O)O)C(=O)N[C@H](C(=O)NCCOCCOCC(=O)N[C@@H](CC(=O)O)C(=O)NCCOCCOCC(=O)NCCCCCCCCCCC(=O)O)CSCC(=O)N[C@@H](Cc2cccc(C)c2)C(=O)N[C@@H](Cc2c[nH]c3ccccc23)C(=O)N[C@@H](CC(=O)O)C1=O` (stereo in doubt) [compound 2286], for the setting “cell-based binding high-content assay, read-out: HC CBA miPrISTA IC50”, the IC50 stood at 25.3 nM.
Consider `CCCCCCN1CC(=O)N[C@@H](Cc2ccc(O)cc2)C(=O)N[C@@H](CCCC)C(=O)N[C@@H](CC(N)=O)C(=O)N[C@@H](CCCNC(=N)N)C(=O)N(C)[C@@H](CCCC)C(=O)N[C@@H](CCCCC)C(=O)N2CCC[C@H]2C(=O)N[C@@H](C(C)(C)C)C(=O)N[C@@H](CO)C(=O)N[C@H](C(=O)NCC(=O)NCCOCCOCC(=O)N[C@@H](CCC(=O)NCCOCCOCC(=O)NCCCCCCCCCCC(=O)O)C(=O)O)CSCC(=O)N[C@@H](Cc2ccccc2)C(=O)N[C@@H](Cc2cccc(C)c2)C(=O)N[C@@H](CC(=O)O)C1=O` [compound 2330] ({CH2CO}-F[Phe(3-Me)]D[NHexGly]Y[Nle]NR[NMeNle][Ahp(2)]P[Tle]SCG[AEEA][γGlu][AEEA][Aun]-OH; thioether N-14), for which the half-maximal inhibitory concentration (IC50) under setting [2] turned out to be 18 nM.
For `CCCCCCN1CC(=O)N[C@@H](Cc2ccc(O)cc2)C(=O)N[C@@H](CCCC)C(=O)N[C@@H](CC(N)=O)C(=O)N[C@@H](CCCNC(=N)N)C(=O)N[C@@H](CC(C)C)C(=O)N[C@@H](CCCCC)C(=O)N2CCC[C@H]2C(=O)N[C@@H](C(C)C)C(=O)N[C@@H](CC(=O)O)C(=O)N[C@H](C(=O)N[C@@H](Cc2ccc(O)cc2)C(N)=O)CSCC(=O)N[C@@H](Cc2ccc3ccccc3c2)C(=O)N[C@@H](Cc2ccc(O)cc2)C(=O)N[C@@H](CC(=O)O)C1=O` [Ex 1323] ({CH2CO}-[2Nal]YD[NHexGly]Y[Nle]NRL[Ahp(2)]PVDCY-NH2; thioether N-14), the IC50 under setting [1] is 13.5 nM.
As for `CCCCCCN1CC(=O)N[C@@H](Cc2ccc(O)cc2)C(=O)N[C@@H](C(C)C)C(=O)NCC(=O)N[C@@H](CCCNC(=N)N)C(=O)N[C@@H](CC(C)C)C(=O)N[C@@H](CCCCC)C(=O)N2CCC[C@H]2C(=O)N[C@@H](C(C)C)C(=O)N[C@@H](CC(=O)O)C(=O)N[C@H](C(=O)N[C@@H](CO)C(=O)N[C@@H](CN)C(=O)N[C@@H](CC(N)=O)C(=O)O)CSCC(=O)N[C@@H](Cc2ccc3ccccc3c2)C(=O)N[C@@H](Cc2ccc(O)cc2)C(=O)N[C@@H](CC(=O)O)C1=O` [Example 1161] ({CH2CO}-[2Nal]YD[NHexGly]YVGRL[Ahp(2)]PVDCS[Dap]N-OH; thioether N-14), the IC50 under setting [3] stood at 22.7 nM.
Regarding `CCCCCCN1CC(=O)N[C@@H](Cc2ccc(O)c(Cl)c2)C(=O)N[C@@H](CC(C)C)C(=O)N[C@@H](CC(N)=O)C(=O)N[C@@H](CCCN)C(=O)N(C)[C@@H](CCCC)C(=O)N[C@@H](CCCCC)C(=O)N2CCC[C@H]2C(=O)N[C@@H](C(C)(C)C)C(=O)N[C@@H](CO)C(=O)N[C@H](C(=O)N[C@@H](CC(=O)NCCOCCOCC(=O)N[C@@H](CC(=O)O)C(=O)NCCOCCOCC(=O)NCCCCCCCCCCC(=O)O)C(=O)O)CSCC(=O)N[C@@H](Cc2ccccc2)C(=O)N[C@@H](Cc2ccc(O)cc2)C(=O)N[C@@H](CC(=O)O)C1=O` [compound 2336] ({CH2CO}-FYD[NHexGly][Tyr(3-Cl)]LN[Orn][NMeNle][Ahp(2)]P[Tle]SC[βAsp][AEEA]D[AEEA][Aun]-OH; thioether N-14), the IC50 under setting [2] is 24 nM.
With `CCCCCCN1CC(=O)N[C@@H](Cc2ccc(O)cc2)C(=O)N[C@@H](CCCCC)C(=O)NCC(=O)N[C@@H](CCCNC(=N)N)C(=O)N[C@@H](CC(C)C)C(=O)N[C@@H](CCCCC)C(=O)N2CCC[C@H]2C(=O)N[C@@H](C(C)C)C(=O)N[C@@H](CO)C(=O)N[C@H](C(=O)NCCOCCOCC(=O)N[C@@H](CCC(=O)NCCOCCOCC(=O)NCCCCCCCCCCC(=O)O)C(=O)O)CSCC(=O)N[C@@H](Cc2ccccc2)C(=O)N[C@@H](Cc2ccc(O)cc2)C(=O)N[C@@H](CC(=O)O)C1=O` [compound 2215] ({CH2CO}-FYD[NHexGly]Y[Ahp(2)]GRL[Ahp(2)]PVSC[AEEA][γGlu][AEEA][Aun]-OH; thioether N-14), under “read-out: HC CBA mVISTA IC50”, the IC50 turned out to be 28.3 nM.
Regarding `CCCCCCN1CC(=O)N[C@@H](Cc2ccc(O)cc2)C(=O)N[C@@H](CC(C)C)C(=O)N[C@@H](CC(N)=O)C(=O)N[C@@H](CCCNC(=N)N)C(=O)N[C@@H](CC(C)C)C(=O)N[C@@H](CCCCC)C(=O)N2CCC[C@H]2C(=O)N[C@@H](C(C)C)C(=O)N[C@@H](C(C)C)C(=O)N[C@H](C(=O)NCC(=O)O)CSCC(=O)N[C@@H](Cc2ccccc2)C(=O)N[C@@H](Cc2ccc(O)cc2)C(=O)N[C@@H](CC(=O)O)C1=O` [Example 1066] ({CH2CO}-FYD[NHexGly]YLNRL[Ahp(2)]PVVCG-OH; thioether N-14), the IC50 under setting [3] was found to be 2.4 nM.
